Reference: the NIST ThermoML archive (doi:10.1016/j.jct.2008.04.008)
Numbers after ± are expanded uncertainties.

Test: mn = molality of the nth substance listed, in mol/kg
Details: Liquid; for speed of sound: Pulse-echo method

[Na+].[O-][Cl+3]([O-])([O-])[O-] [sodium perchlorate] + CO
Details | mass density, 283.15 K [kg/m3] | mass density, 288.15 K [kg/m3] | mass density, 293.15 K [kg/m3] | mass density, 298.15 K [kg/m3] | mass density, 303.15 K [kg/m3] | mass density, 308.15 K [kg/m3] | mass density, 313.15 K [kg/m3] | speed of sound, 298.15 K [m/s]
m1 = 0.06243 | 805.671 ± 0.29 | 800.986 ± 0.29 | 796.296 ± 0.3 | 791.593 ± 0.3 | 786.871 ± 0.31 | 782.134 ± 0.31 | 777.365 ± 0.32 | 1106.7 ± 0.91
m1 = 0.0815 | 807.203 ± 0.29 | 802.517 ± 0.29 | 797.826 ± 0.3 | 793.122 ± 0.3 | 788.409 ± 0.31 | 783.67 ± 0.31 | 778.903 ± 0.32 | 1107.7 ± 0.91
m1 = 0.1008 | 808.744 ± 0.29 | 804.058 ± 0.29 | 799.365 ± 0.3 | 794.669 ± 0.3 | 789.952 ± 0.31 | 785.213 ± 0.31 | 780.447 ± 0.32 | 1108.9 ± 0.91
m1 = 0.1221 | 810.429 ± 0.29 | 805.746 ± 0.29 | 801.058 ± 0.29 | 796.356 ± 0.3 | 791.635 ± 0.3 | 786.904 ± 0.31 | 782.14 ± 0.31 | 1110.1 ± 0.91
m1 = 0.1416 | 811.984 ± 0.28 | 807.3 ± 0.29 | 802.609 ± 0.29 | 797.903 ± 0.3 | 793.191 ± 0.3 | 788.455 ± 0.31 | 783.694 ± 0.31 | 1111.2 ± 0.91
m1 = 0.1625 | 813.649 ± 0.28 | 808.965 ± 0.29 | 804.274 ± 0.29 | 799.57 ± 0.3 | 794.858 ± 0.3 | 790.121 ± 0.31 | 785.36 ± 0.31 | 1112.4 ± 0.91
m1 = 0.2036 | 816.875 ± 0.28 | 812.189 ± 0.28 | 807.5 ± 0.29 | 802.798 ± 0.29 | 798.077 ± 0.3 | 793.334 ± 0.3 | 788.581 ± 0.31 | 1115.1 ± 0.92
m1 = 0.2459 | 820.175 ± 0.28 | 815.49 ± 0.28 | 810.8 ± 0.29 | 806.099 ± 0.29 | 801.382 ± 0.29 | 796.642 ± 0.3 | 791.885 ± 0.3 | 1117 ± 0.92
m1 = 0.2865 | 823.32 ± 0.27 | 818.628 ± 0.28 | 813.937 ± 0.28 | 809.237 ± 0.29 | 804.52 ± 0.29 | 799.783 ± 0.3 | 795.021 ± 0.3 | 1119 ± 0.92
m1 = 0.3276 | 826.533 ± 0.27 | 821.841 ± 0.28 | 817.143 ± 0.28 | 812.442 ± 0.28 | 807.725 ± 0.29 | 802.987 ± 0.29 | 798.225 ± 0.3 | 1121.3 ± 0.92
m1 = 0.3701 | 829.792 ± 0.27 | 825.099 ± 0.27 | 820.402 ± 0.28 | 815.691 ± 0.28 | 810.974 ± 0.29 | 806.236 ± 0.29 | 801.475 ± 0.29 | 1123.6 ± 0.92
m1 = 0.412 | 832.991 ± 0.27 | 828.296 ± 0.27 | 823.6 ± 0.27 | 818.891 ± 0.28 | 814.168 ± 0.28 | 809.417 ± 0.29 | 804.668 ± 0.29 | 1125.5 ± 0.92
